According to patent EP0264914A2, “Process for producing L-phenylalanine” (KYOWA HAKKO KOGYO CO., LTD., priority 1986, dated 1988):
Like-named read-outs stand apart in the source and are kept apart here.

Legend:
[1] = biological target: CM (Escherichia coli, UniProt P0A9J8); experiment: CM activity with phenylalanine added to the reaction solution; format: biochemical; conditions: 100 mM phenylalanine; for activity at 100000 µM: read-out: CM activity, expressed as percentage of that without addition of phenylalanine
Sequence of CM (P0A9J8 whole entry): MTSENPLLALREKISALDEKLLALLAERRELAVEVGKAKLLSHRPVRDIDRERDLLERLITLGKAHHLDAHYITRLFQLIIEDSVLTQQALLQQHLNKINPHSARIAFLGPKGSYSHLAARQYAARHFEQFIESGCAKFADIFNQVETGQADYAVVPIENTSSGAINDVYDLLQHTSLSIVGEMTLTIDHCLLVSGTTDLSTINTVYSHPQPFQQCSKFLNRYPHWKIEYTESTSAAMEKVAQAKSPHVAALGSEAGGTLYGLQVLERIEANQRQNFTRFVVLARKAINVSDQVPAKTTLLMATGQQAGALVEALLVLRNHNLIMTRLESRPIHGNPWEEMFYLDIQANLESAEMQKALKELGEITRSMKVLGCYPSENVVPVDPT
Description: (§1) DS, CM and PD activities of Corynebacterium glutamicum ATCC 39019 and transformants containing pEaroG-pheA3 were determined. Determination of DS activity was done according to the method of P.R. Sprinavasan, D.B. Sprinson, et al. [J. Biol. Chem., 234, 716 (1959)] and determination of CM and PD activities was done according to the method of R.G.H. Cotton and F. Gibson [Biochem. Biophys. Acta, 100, 76 (1965)].
(§2) Furthermore, DS, CM and PD activities of the transformants carrying pEaroG-pheA1, pEaroG-pheA2 or pEaroG-pheA3, were determined when 100 mM phenylalanine was added to the reaction solutions. Their activities shown in Table 2 are expressed as percentages of those without addition of phenylalanine.

[2] = system: Escherichia coli AB3248 strain carrying pAROG1; experiment: Growth on M9 plate medium containing phenylalanine; format: cell-based; conditions: M9 plate medium containing 500 µg/mℓ phenylalanine
Description: Then, 50 µℓ of the ligase reaction mixture was added to 0.2 mℓ of a suspension containing competent cells at a concentration of about 10⁹ cells/mℓ and the mixture was left standing on ice for 10 minutes. Then, the mixture was heated at 37°C for 5 minutes and admixed with 2 mℓ of LB medium. Then, the mixture was left standing at 37°C for 90-120 minutes. Then, the cells were centrifugally washed twice with physiological saline solution and spread onto M9 plate medium (medium comprising 2 g of glucose, 1 g of NH₄Cl, 6 g of Na₂HPO₄, 3 g of KH₂PO₄, 0.1 g of MgSO₄·7H₂O, 15 mg of CaCl₂·2H₂O, 4 mg of thiamine hydrochloride and 15 g of agar in 1 ℓ of water, adjusted to pH 7.2), containing […] each of histidine, proline, arginine, isoleucine and valine. Colonies grown on M9 plate medium were spread onto LB plate medium (LB medium containing 1.6% agar, pH 7.0) containing 100 µg/mℓ ampicillin and LB plate medium containing 20 µg/mℓ tetracycline, and transformants grown on the ampicillin-containing medium and failing to grow on the tetracycline-containing medium were selected.
Furthermore, the HindIII-SalI-cleaved DNA fragment had the same restriction enzyme cleavage sites as those of aroG gene, as reported by W.D. Davies, et al. [Nucl. Acids Res., 10, 4045 (1982)] […]

[3] = biological target: DS (Escherichia coli, UniProt P0AB91); experiment: DS activity with phenylalanine added to the reaction solution; format: biochemical; conditions: 100 mM phenylalanine
Sequence of DS (P0AB91 whole entry): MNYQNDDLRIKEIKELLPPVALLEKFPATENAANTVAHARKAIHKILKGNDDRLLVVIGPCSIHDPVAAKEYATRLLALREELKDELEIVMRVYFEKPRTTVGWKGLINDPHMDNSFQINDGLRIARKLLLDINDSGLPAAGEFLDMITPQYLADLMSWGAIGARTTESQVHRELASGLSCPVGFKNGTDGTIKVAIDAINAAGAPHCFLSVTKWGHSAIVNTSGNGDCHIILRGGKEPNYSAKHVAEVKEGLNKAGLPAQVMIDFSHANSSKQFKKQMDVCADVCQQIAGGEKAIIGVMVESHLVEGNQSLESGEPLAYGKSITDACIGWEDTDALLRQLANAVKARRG
Description: as §1, §2

[4] = biological target: PD (Escherichia coli, UniProt P0A9J8); experiment: PD activity with phenylalanine added to the reaction solution; format: biochemical; conditions: 100 mM phenylalanine; for activity at 100000 µM: read-out: PD activity, expressed as percentage of that without addition of phenylalanine
Sequence of PD (P0A9J8 whole entry): as the sequence (P0A9J8 whole entry) above
Description: as §1, §2

[5] = Corynebacterium glutamicum ATCC 39019/pEaroG-pheA1
[6] = Corynebacterium glutamicum ATCC 39019/pEaroG-pheA2
[7] = Corynebacterium glutamicum ATCC 39019/pEaroG-pheA3

N[C@@H](Cc1ccccc1)C(=O)O [phenylalanine]
activity at 100000 µM [1, 5]: 61%
activity at 100000 µM [1, 6]: 66%
CM activity, expressed as percentage of that without addition of phenylalanine [1, 7]: 89 percentages
growth of Escherichia coli AB3248 strain carrying pAROG1 [2]: completely inhibited
activity at 100000 µM ([3]; Corynebacterium glutamicum ATCC 39019/pEaroG-pheA1, read-out: DS activity, expressed as percentage of that without addition of phenylalanine): 12%
DS activity, expressed as percentage of that without addition of phenylalanine [3, 6]: 74 percentages
DS activity, expressed as percentage of that without addition of phenylalanine [3, 7]: 74 percentages
activity at 100000 µM [4, 5]: 5%
activity at 100000 µM [4, 6]: 7%
PD activity, expressed as percentage of that without addition of phenylalanine [4, 7]: 81 percentages
